Measured values as given in ChEMBL document CHEMBL4715878 (J Med Chem, 2020).
Activity calls are given as the source filed them. The calls are words filed in the database; no cut-off is given here.

Tests used:
[1] = tested on: BT-474; test: Induction of apoptosis in human BT474 cells assessed as increase in late apoptotic cells at 0.5 to 5 uM incubated for 72 hrs by Annexin V-FITC/PI staining based flow cytometry analysis relative to control; format: functional; conditions: dose 0.5-5 µM
[2] = tested on: BT-474; test: Induction of apoptosis in human BT474 cells assessed as increase in early apoptotic cells at 0.5 to 5 uM incubated for 72 hrs by Annexin V-FITC/PI staining based flow cytometry analysis relative to control; format: functional; conditions: dose 0.5-5 µM
[3] = tested on: BT-474; test: Induction of apoptosis in human BT474 cells assessed as increase in early apoptotic cells incubated for 72 hrs by Annexin V-FITC/PI staining based flow cytometry analysis; format: functional, cell-based; conditions: dose 0.1-5 µM
[4] = tested on: MDA-MB-231; test: Antiproliferative activity against human MDA-MB-231 cells assessed as reduction in cell viability incubated for 72 hrs by WST8 assay; format: functional, cell-based; conditions: MDA-MB-231, 72 h
[5] = tested on: MCF7; test: Antiproliferative activity against human MCF7 cells assessed as reduction in cell viability incubated for 72 hrs by WST8 assay; format: functional, cell-based; conditions: MCF7, 72 h
[6] = tested on: BT-474; test: Antiproliferative activity against human BT474 cells assessed as reduction in cell viability incubated for 72 hrs by WST8 assay; format: functional, cell-based; conditions: BT-474, 72 h
[7] = tested on: AU565; test: Antiproliferative activity against human AU565 cells assessed as reduction in cell viability incubated for 72 hrs by WST8 assay; format: functional, cell-based; conditions: AU565, 72 h
[8] = Selectivity ratio of IC50 for antiproliferative activity against human AU565 cells to IC50 for antiproliferative activity against human BT474 cells; format: functional
[9] = tested on: MCF7; test: Potency index, ratio of lapatinib IC50 to test compound IC50 for antiproliferative activity against human MCF7 cells; format: functional
[10] = tested on: MDA-MB-231; test: Induction of apoptosis in human MDA-MB-231 cells assessed as accumulation in late apoptotic cells at 5 uM incubated for 72 hrs by Annexin V-FITC/PI staining based flow cytometry analysis; format: functional, cell-based
[11] = tested on: MDA-MB-231; test: Induction of apoptosis in human MDA-MB-231 cells assessed as accumulation in early apoptotic cells at 5 uM incubated for 72 hrs by Annexin V-FITC/PI staining based flow cytometry analysis; format: functional, cell-based
[12] = tested on: MCF7; test: Induction of apoptosis in human MCF7 cells assessed as accumulation in late apoptotic cells at 5 uM incubated for 72 hrs by Annexin V-FITC/PI staining based flow cytometry analysis; format: functional, cell-based
[13] = tested on: MCF7; test: Induction of apoptosis in human MCF7 cells assessed as accumulation in early apoptotic cells at 5 uM incubated for 72 hrs by Annexin V-FITC/PI staining based flow cytometry analysis; format: functional, cell-based
[14] = tested on: BT-474; test: Induction of apoptosis in human BT474 cells assessed as increase in early apoptotic cells at 0.2 uM incubated for 72 hrs by Annexin V-FITC/PI staining based flow cytometry analysis relative to control; format: functional
[15] = molecular target: T1, Receptor tyrosine-protein kinase erbB-2 (Homo sapiens, UniProt P04626); test: Inhibition of wild-type HER2 (unknown origin) at 0.5 nM in presence of substrate incubated for 30 mins by ADP-Glo assay relative to control
T1 sequence (P04626 whole entry): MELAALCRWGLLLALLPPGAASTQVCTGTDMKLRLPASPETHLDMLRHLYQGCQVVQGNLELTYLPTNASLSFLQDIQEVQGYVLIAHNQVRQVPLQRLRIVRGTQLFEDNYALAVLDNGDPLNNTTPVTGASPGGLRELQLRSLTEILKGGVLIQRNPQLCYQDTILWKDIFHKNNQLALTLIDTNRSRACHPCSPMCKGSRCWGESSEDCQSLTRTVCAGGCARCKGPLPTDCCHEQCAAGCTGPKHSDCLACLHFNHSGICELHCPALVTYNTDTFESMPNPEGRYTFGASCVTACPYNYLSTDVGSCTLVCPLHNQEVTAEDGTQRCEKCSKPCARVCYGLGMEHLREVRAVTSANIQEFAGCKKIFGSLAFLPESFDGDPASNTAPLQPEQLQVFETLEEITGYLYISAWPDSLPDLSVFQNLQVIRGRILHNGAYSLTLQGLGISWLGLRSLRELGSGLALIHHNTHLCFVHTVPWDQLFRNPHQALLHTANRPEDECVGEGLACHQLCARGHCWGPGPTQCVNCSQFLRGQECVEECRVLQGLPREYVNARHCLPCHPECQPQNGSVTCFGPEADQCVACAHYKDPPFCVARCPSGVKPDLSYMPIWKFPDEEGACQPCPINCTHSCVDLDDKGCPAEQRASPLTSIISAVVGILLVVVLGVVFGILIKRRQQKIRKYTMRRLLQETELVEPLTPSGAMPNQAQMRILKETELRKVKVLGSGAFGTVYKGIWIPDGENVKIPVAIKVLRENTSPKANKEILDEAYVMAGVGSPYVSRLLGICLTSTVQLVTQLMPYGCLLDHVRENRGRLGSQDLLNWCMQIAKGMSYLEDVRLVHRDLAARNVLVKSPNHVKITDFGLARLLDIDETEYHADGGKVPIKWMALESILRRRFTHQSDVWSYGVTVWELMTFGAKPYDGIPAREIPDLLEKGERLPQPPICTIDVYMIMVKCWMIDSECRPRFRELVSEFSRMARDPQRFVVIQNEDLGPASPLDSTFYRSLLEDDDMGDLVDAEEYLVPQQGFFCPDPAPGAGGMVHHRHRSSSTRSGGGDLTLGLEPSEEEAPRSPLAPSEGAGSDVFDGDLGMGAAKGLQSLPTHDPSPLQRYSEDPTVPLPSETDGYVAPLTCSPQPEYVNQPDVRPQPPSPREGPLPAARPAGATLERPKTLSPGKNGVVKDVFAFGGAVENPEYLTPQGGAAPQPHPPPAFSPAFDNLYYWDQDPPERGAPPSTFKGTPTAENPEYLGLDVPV

[16] = molecular target: T1, Receptor tyrosine-protein kinase erbB-2; test: Inhibition of HER2 (unknown origin) in presence of substrate incubated for 30 mins by ADP-Glo assay
[17] = tested on: BT-474; test: Antitumor activity against human BT474 cells xenografted in athymic nude mouse assessed as reduction in metastasis of cells at 50 mg/kg, po administered via oral gavage for 5 times per week for 55 days measured post-last dose; format: functional, organism-based; conditions: time 55.0 day
[18] = tested on: BT-474; test: Antitumor activity against human BT474 cells xenografted in athymic nude mouse assessed as suppression of tumor growth by measuring decrease in number of Ki67 positive cells at 50 mg/kg, po administered via oral gavage for 5 times per week for 55 days measured post-last dose by Ki67-staining based immunohistochemistry; format: functional, organism-based; conditions: time 55.0 day
[19] = tested on: BT-474; test: Antitumor activity against human BT474 cells xenografted in athymic nude mouse assessed as inflammation in tumors at 50 mg/kg, po administered via oral gavage for 5 times per week for 55 days measured post-last dose by H and E staining based immunohistochemical analysis; format: functional, organism-based; conditions: time 55.0 day
[20] = tested on: BT-474; test: Antitumor activity against human BT474 cells xenografted in athymic nude mouse assessed as appearance of tumor fibrosis at 50 mg/kg, po administered via oral gavage for 5 times in a week for 55 days measured post-last dose by H and E staining based immunohistochemical analysis; format: functional, organism-based; conditions: time 55.0 day
[21] = tested on: BT-474; test: Antitumor activity against human BT474 cells xenografted in athymic nude mouse assessed as tumor necrosis at 50 mg/kg, po administered via oral gavage for 5 times in a week for 55 days measured post-last dose by H and E staining based immunohistochemical analysis; format: functional, organism-based; conditions: time 55.0 day
[22] = tested on: BT-474; test: Antitumor activity against human BT474 cells xenografted in athymic nude mouse assessed as tumor weight at 50 mg/kg, po administered via oral gavage for 5 times in a week for 55 days measured post last dose (reference value: 2.046 g); format: functional; conditions: time 55 day
[23] = tested on: BT-474; test: Antitumor activity against human BT474 cells xenografted in athymic nude mouse assessed as tumor growth inhibition at 50 mg/kg, po administered via oral gavage for 5 times in a week for 55 days measured post last dose; format: functional, organism-based; conditions: time 55.0 day
[24] = tested on: AU565; test: Down regulation of HER2 expression in human AU565 cells at 0.1 IC50 incubated for 24 hrs by western blot analysis; format: functional, cell-based
[25] = tested on: T47D; test: Antiproliferative activity against human T47D cells assessed as cell growth inhibition after 48 hrs by SRB assay; format: functional; conditions: pooled result: one value given for 5 cell lines, strains, targets or settings
[26] = Antiproliferative activity against human BC assessed as lethality at 10 uM after 48 hrs by SRB assay relative to control; format: functional
[27] = Antiproliferative activity against human BC assessed as cell growth inhibition at 10 uM after 48 hrs by SRB assay relative to control; format: functional; conditions: read-out: GI
[28] = Antiproliferative activity against human MDA-MB-231 cells assessed as lethality at 10 uM after 48 hrs by SRB assay relative to control; format: functional, MDA-MB-23
[29] = tested on: MCF7; test: Antiproliferative activity against human MCF7 cells assessed as lethality at 10 uM after 48 hrs by SRB assay relative to control; format: functional
[30] = tested on: MDA-MB-468; test: Antiproliferative activity against human MDA-MB-468 cells assessed as cell growth inhibition after 48 hrs by SRB assay; format: functional
[31] = tested on: MDA-MB-468; test: Antiproliferative activity against human MDA-MB-468 cells assessed as lethality at 10 uM after 48 hrs by SRB assay relative to control; format: functional
[32] = tested on: MDA-MB-468; test: Antiproliferative activity against human MDA-MB-468 cells assessed as cell growth inhibition at 10 uM after 48 hrs by SRB assay relative to control; format: functional; conditions: read-out: GI
[33] = tested on: Panel NCI-60 (60 carcinoma cell lines); test: Antiproliferative activity against human NCI60 cells assessed as lethality at 10 uM after 48 hrs by SRB assay relative to control; format: functional
[34] = tested on: Panel NCI-60 (60 carcinoma cell lines); test: Antiproliferative activity against human NCI60 cells assessed as mean cell growth at 10 uM after 48 hrs by SRB assay relative to control; format: functional
[35] = molecular target: T1, Receptor tyrosine-protein kinase erbB-2; test: Inhibition of wild-type HER2 (unknown origin) at 100 nM in presence of substrate incubated for 30 mins by ADP-Glo assay relative to control
[36] = in vitro; conditions: CD-1, mouse, liver microsomes
Description: Metabolic stability in CD-1 mouse liver microsomes assessed as parent compound remaining at 100 uM measured after 60 mins by LC-MS/MS analysis

[37] = in vitro; conditions: CD-1, mouse, liver microsomes; remark: listed apart in the source
Description: Metabolic stability in CD-1 mouse liver microsomes assessed as parent compound remaining at 100 uM measured after 60 mins in presence of NADPH by LC-MS/MS analysis

[38] = in vitro; conditions: CD-1, mouse, liver microsomes; remark: listed apart in the source
[39] = in vitro; conditions: CD-1, mouse, microsomes
[40] = in vitro; conditions: CD-1, mouse, liver microsomes; remark: listed apart in the source

CN(C)CC(=O)Nc1ccc2ncnc(Nc3ccc(Oc4cccc(F)c4)c(Cl)c3)c2c1
Activity [1]: inactive
fold change (FC) [2]: <=6
Activity [3]: Dose-dependent effect
IC50 [4]: 6560 nM
IC50 [5]: 321 nM
IC50 [6]: 107 nM
IC50 [7]: 663 nM
Ratio IC50 [8]: 6
Ratio IC50 [9]: <=20

CN1CCN(CC(=O)Nc2ccc3ncnc(Nc4ccc(OCc5cccc(F)c5)c(Cl)c4)c3c2)CC1
Activity [10]: inactive
Activity [11]: inactive
Activity [12]: inactive
Activity [13]: inactive
fold change (FC) [1]: 2
fold change (FC) [2]: 10
fold change (FC) [14]: 7
Activity [3]: Dose-dependent effect
IC50 [4]: 1360 nM
IC50 [5]: 1780 nM
inhibition [15]: 3%
IC50 [6]: 133 nM
IC50 [7]: 134 nM
IC50 [16]: 6.1 nM
Ratio IC50 [9]: <=20

CN1CCN(CCCOc2ccc3ncnc(Nc4ccc(OCc5cccc(F)c5)c(Cl)c4)c3c2)CC1
Activity [17]: Active
Activity [18]: Active
Activity [19]: Active
Activity [20]: Active
Activity [21]: Active
Activity [22]: 1.223 g
TGI [23]: Active
Activity [24]: Active
Activity [10]: inactive
Activity [11]: inactive
Activity [12]: inactive
Activity [13]: inactive
fold change (FC) [1]: <=3
fold change (FC) [2]: <=6
Activity [3]: Dose-dependent effect
GI50 [25]: 1370 nM
Activity [26]: <=78.7%
inhibition of growth at 10 µM [27]: ≤ 78.7%
Activity [28]: 11.7%
Activity [29]: 11.7%
GI50 [30]: 400 nM
Activity [31]: 11.7%
inhibition of growth at 10 µM [32]: 18.8%
Activity [33]: 1.3%
Activity [34]: 11.85%
IC50 [4]: 737 nM
IC50 [5]: 1930 nM
inhibition [35]: 91%
inhibition [15]: 3%
IC50 [6]: 83 nM
IC50 [7]: 99 nM
IC50 [16]: 8.3 nM
Ratio IC50 [9]: <=20
remaining at 1 h, 100 µM [36]: 93.5%
remaining at 1 h, 100 µM [37]: 46.4%
CLint scaled at 1 h, 100 µM [38]: 95.7 mL/min/kg
microsomal CLint at 1 h, 100 µM [39]: 24.2 µL/min/mg
half-life at 1 h, 100 µM [40]: 57.4 min
